# Assay results as given in US20230092232A1, “COMPOUNDS THAT MODULATE ANTI-TUMOR IMMUNITY AND METHODS OF DOING THE SAME” (University of Florida Research Foundation, Incorporated, priority 2020, published 2023).
# “Also recorded” adds a separate entry of the source.
# Tests used:
# IMEA cells = assay: In vitro killing of IMEA HCC cells, with or without BALB/c splenocytes; assay type: cell-based, mouse; design: IMEA cell killing: unit of the concentration uncertain; conditions: for enhanced killing of IMEA HCC: in vitro screening with T cells
# Method: Prior to validation in human systems, a mouse system targeting hepatocellular carcinoma (HCC), the most common form of liver cancer, was used. IMEA is a murine HCC line of the H2^d haplotype, expressing the H2-D^d, H2-K^d, and H2-L^d allelic variants.
# (§1) In a first set of experiments, drugs (e.g., small molecules) that bind IMEA MHC were selected from a database compiled using the in silico modeling and scoring methodology disclosed herein, and were tested for T cell stimulation and HCC killing in vitro. The crystal structure of H2-D^d was used as the basis for in silico selection of FDA-approved drugs predicted to bind the antigen binding cleft. DOCK6, a structure-based design program for early drug discovery (available for download at http://dock.compbio.ucsf.edu/) was used to screen 1,207 FDA approved small molecule drugs by parallel processing at the University of Florida High Performance Computing Center. An initial 1,207 FDA approved compounds were selected based upon their predicted ability to bind the HLA-A2 supertype, and thus their predicted efficacy across a wide swath of individuals. The top 40 scoring compounds were obtained from the National Cancer Institute Developmental Therapeutics Program.
# IMEA cells were seeded in 24-well plates. At 30% confluence of IMEA cells, 0.5×10^6 of BALB/c mouse splenocytes were added to half of the wells. The compounds under evaluation were incubated with IMEA cells in concentrations […] and 1 mM, and supernatant was subsequently collected.
# H2-D^d T cells = assay: In vitro T cell stimulation in the mouse HCC system; assay type: cell-based
# Method: as §1
# IMEA cells were seeded in 24-well plates. At 30% confluence of IMEA cells, 0.5×10^6 of BALB/c mouse splenocytes were added to half of the wells. The compounds under evaluation were incubated with IMEA cells in concentrations of 10 mM and 1 mM, and supernatant was subsequently collected.
# HLA alleles = conditions: cited from earlier work
# [1] = tested on: PBMCs from an HLA-A2 expressing individual (UF 86); assay: Ex vivo T cell stimulation assay, flow cytometry, HLA-A2 expressing PBMCs; assay type: cell-based, human; conditions: for autologous mixed lymphocyte reaction: HLA-A2 expressing cells, FIG. 5
# Method: Third, top scoring compounds were tested for their ability to modulate proliferation of peripheral blood mononuclear cells (PBMCs) from healthy individuals using ex vivo T cell stimulation assays. Here, the drugs predicted to bind HLA-A2 (FIGS. 4A-4I) were tested using PBMCs from HLA-typed normal individuals. In assays, drugs were incubated with PBMCs (for up to 14 days), and functional characteristics of the responding T cell population were assayed utilizing flow cytometry (e.g., using antibodies specific for CD3 and CD8). PBMCs were stimulated with drugs at […] per ml with interleukin-2 (IL-2) supplemented on day 2. […] PBMCs from an HLA-A2 expressing individual (“UF 86” is homozygous for HLA-A*02:01) were incubated with a panel of drugs predicted to bind HLA-A2 by molecular docking. PBMCs from an individual lacking HLA-A2 (“UF 85”) served as a control for HLA allele specificity. Cells were stained with antibodies specific for CD3, CD8 (cytotoxic T lymphocyte markers), CD69, and CD107a (LAMP-1) (activation markers) to identify those drugs from the top scoring grouping that modify cytotoxic T lymphocyte activity.
# HLA-B*57:01 = HLA-B*57:01 (Homo sapiens, UniProt P01889, D201E/D98Y/E176V/E187L/E204Q/E69M/E70A/G107R/I90N/K202T/L105A/L119I/N104I/N87E/Q89R/Q94S/R106L/R155S/R180L/R86G/S101N/S121V/S35A/S48A/T118I/V36M/Y140S/Y91M); conditions: cited from earlier work
# [2] = tested on: peripheral blood mononuclear cells from hypersensitive HLA-B*57.01+ patients; conditions: cultured with abacavir in vitro; cited from earlier work
# [3] = cited from earlier work
compound,measurement,setting,value
N[C@@H](Cc1ccc(N(CCCl)CCCl)cc1)C(=O)O [melphalan],enhanced killing of IMEA HCC,IMEA cells,enhanced killing
same,stimulation of H2-D^d T cells,H2-D^d T cells,stimulated
N[C@@H](Cc1ccc(N(CCCl)CCCl)cc1)C(=O)O [compound 241286],IMEA cell killing,IMEA cells; 10 (unit uncertain),killed
Cc1cc(NS(=O)(=O)c2ccc(N)cc2)no1 [Sulfamethoxazole],HLA allele association(s) with adverse drug reaction,HLA alleles,A30; B13; Cw6
CCOC(=O)CN[C@@H](C(=O)N1CC[C@H]1C(=O)NCc1ccc(/C(N)=N\O)cc1)C1CCCCC1 [Ximelagatran],HLA allele association(s) with adverse drug reaction,HLA alleles,"DRB1*07, DQA1*02; also recorded: DQB1*07:01"
CC1(C)S[C@@H]2[C@H](NC(=O)[C@H](N)c3ccccc3)C(=O)N2[C@H]1C(=O)O [Aminopenicillins],HLA allele association(s) with adverse drug reaction,HLA alleles,"A2, DRw52"
O=C(O)c1ccc(I)cc1O [drug 10],autologous mixed lymphocyte reaction,[1],inhibit
Nc1nc(NC2CC2)c2ncn([C@H]3C=C[C@@H](CO)C3)c2n1 [Abacavir],CD8+ T cell activity,HLA-B*57:01; by binding HLA-B*57:01,enhances
same,polyclonal T cell responses,HLA-B*57:01; drug naïve individuals that carry the HLA-B*57:01 allele,stimulates
same,"immune response of PBMCs (interferon-γ, tumor necrosis factor-α, other inflammatory cytokines)",[2],detectable immune response
same,risk of a hypersensitivity reaction,[3]; HLA-B*57:01 patient,~50%
same,overall incidence rate of hypersensitivity,"[3]; no genetic prescreening, HLA-B*57:01+ and HLA-B*57:01- individuals",~6%
Asparaginase,HLA allele association(s) with adverse drug reaction,HLA alleles,DRB1*07:01
CN1CCN(C2=Nc3cc(Cl)ccc3Nc3ccccc32)CC1 [Clozapine],HLA allele association(s) with adverse drug reaction,HLA alleles,"B38, DR4, DR2"
NC(=O)c1ncn([C@@H]2O[C@H](CO)[C@@H](O)[C@H]2O)n1 [compound 163039],IMEA cell killing,IMEA cells; 10 (unit uncertain),killed
NNc1nncc2ccccc12 [Hydralazine],HLA allele association(s) with adverse drug reaction,HLA alleles,DR4
"O=CC(Br)=C(Br)C(=O)O [drug 11, 2,3-dibromo-4-oxobut-2-enoic acid]",number of activated CD8+ cells,"[1]; day 4, FIG. 5",enhances
CC(C)(S)[C@@H](N)C(=O)O [d-penicillamine],HLA allele association(s) with adverse drug reaction,HLA alleles,"B8, DR3, DR1"
CC(=O)Oc1ccccc1C(=O)O [Aspirin],HLA allele association(s) with adverse drug reaction,HLA alleles,DPB1*03:01; also recorded: DRB1*13:02-DQB1*06:09
Nc1ncn([C@@H]2O[C@H](CO)[C@@H](O)[C@H]2O)c(=O)n1 [vidaza],enhanced killing of IMEA HCC,IMEA cells,enhanced killing
same,stimulation of H2-D^d T cells,H2-D^d T cells,stimulated
Cl.Nc1ccn([C@@H]2O[C@H](CO)[C@@H](O)[C@@H]2O)c(=O)n1 [compound 63878],IMEA cell killing,IMEA cells; 1 (unit uncertain),killed
same,IMEA cell killing,IMEA cells; 10 (unit uncertain),killed
O=C(O)CNC(=O)C(Cl)Cl [drug 3],autologous mixed lymphocyte reaction,[1],inhibit
NC(=O)c1ncn([C@@H]2O[C@H](CO)[C@@H](O)[C@H]2O)n1 [ribavirin],enhanced killing of IMEA HCC,IMEA cells,enhanced killing
same,stimulation of H2-D^d T cells,H2-D^d T cells,stimulated
Nc1ncn([C@@H]2O[C@H](CO)[C@@H](O)[C@H]2O)c(=O)n1 [compound 102816],IMEA cell killing,IMEA cells; 10 (unit uncertain),killed
